Test results as given in patent US20240043456A1 (Unity Biotechnology, Inc., priority 2020, published 2024).
Values belong to the compound of their own block, whether it stands above or below them.

Columns and labels:
[1] = Chemical stability of free acid and salts during salt preparation; type: physicochemical
[2] = 12-month stability test, HPLC; type: physicochemical; parameters: HPLC result, RRT 1.09: unit not given beside the values; details: for HPLC result, RRT 0.86 / HPLC result, RRT 0.94 / HPLC result, RRT 1 / HPLC result, RRT 1.05 / HPLC result, RRT 1.09 / HPLC result, RRT 1.15 / HPLC result, RRT 1.27 / HPLC result, RRT 1.29 / HPLC result, RRT 1.65: 2-8° C.

Compound: (R)-5-(4-chlorophenyl)-1-isopropyl-2-methyl-4-(3-(4-(4-((4-((1-(phenylthio)-4-(4-((phosphonooxy)methyl)piperidin-1-yl)butan-2-yl)amino)-3-((trifluoromethyl)sulfonyl)phenyl)sulfonamido)phenyl)piperazin-1-yl)phenyl)-1H-pyrrole-3-carboxylic acid meglumine salt
chemical stability ([1]; under experimental conditions): chemically stable
HPLC result, RRT 0.86 ([2]; 1 month): 0.05
HPLC result, RRT 0.94 ([2]; 1 month): 0.07
HPLC result, RRT 1 ([2]; 1 month): 99.4
HPLC result, RRT 1.05 ([2]; 1 month): <0.05
HPLC result, RRT 1.09 ([2]; 1 month): 0.07
HPLC result, RRT 1.15 ([2]; 1 month): <0.05
HPLC result, RRT 1.27 ([2]; 1 month): <0.05
HPLC result, RRT 1.29 ([2]; 1 month): 0.38
HPLC result, RRT 0.86 ([2]; 2 months): 0.05
HPLC result, RRT 0.94 ([2]; 2 months): 0.07
HPLC result, RRT 1 ([2]; 2 months): 99.4
HPLC result, RRT 1.05 ([2]; 2 months): <0.05
HPLC result, RRT 1.09 ([2]; 2 months): 0.08
HPLC result, RRT 1.15 ([2]; 2 months): <0.05
HPLC result, RRT 1.27 ([2]; 2 months): <0.05
HPLC result, RRT 1.29 ([2]; 2 months): 0.40
HPLC result, RRT 0.86 ([2]; 2 weeks): <0.05
HPLC result, RRT 0.94 ([2]; 2 weeks): 0.07
HPLC result, RRT 1 ([2]; 2 weeks): 99.4
HPLC result, RRT 1.05 ([2]; 2 weeks): <0.05
HPLC result, RRT 1.09 ([2]; 2 weeks): 0.07
HPLC result, RRT 1.15 ([2]; 2 weeks): <0.05
HPLC result, RRT 1.27 ([2]; 2 weeks): <0.05
HPLC result, RRT 1.29 ([2]; 2 weeks): 0.38
HPLC result, RRT 1.65 ([2]; 2 weeks): <0.05
HPLC result, RRT 0.86 ([2]; 3 months): 0.09
HPLC result, RRT 0.94 ([2]; 3 months): <0.05
HPLC result, RRT 1 ([2]; 3 months): 99.5
HPLC result, RRT 1.05 ([2]; 3 months): <0.05
HPLC result, RRT 1.09 ([2]; 3 months): 0.08
HPLC result, RRT 1.15 ([2]; 3 months): <0.05
HPLC result, RRT 1.27 ([2]; 3 months): <0.05
HPLC result, RRT 1.29 ([2]; 3 months): 0.36
HPLC result, RRT 1.65 ([2]; 3 months): <0.05
HPLC result, RRT 0.86 ([2]; 6 months): 0.05
HPLC result, RRT 0.94 ([2]; 6 months): 0.06
HPLC result, RRT 1 ([2]; 6 months): 99.3
HPLC result, RRT 1.05 ([2]; 6 months): 0.05
HPLC result, RRT 1.09 ([2]; 6 months): 0.06
HPLC result, RRT 1.15 ([2]; 6 months): <0.05
HPLC result, RRT 1.27 ([2]; 6 months): <0.05
HPLC result, RRT 1.29 ([2]; 6 months): 0.44
HPLC result, RRT 1.65 ([2]; 6 months): <0.05
HPLC result, RRT 0.86 ([2]; 9 months): 0.08
HPLC result, RRT 0.94 ([2]; 9 months): 0.06
HPLC result, RRT 1 ([2]; 9 months): 99.2
HPLC result, RRT 1.05 ([2]; 9 months): 0.07
HPLC result, RRT 1.09 ([2]; 9 months): 0.09
HPLC result, RRT 1.15 ([2]; 9 months): <0.05
HPLC result, RRT 1.27 ([2]; 9 months): 0.1
HPLC result, RRT 1.29 ([2]; 9 months): 0.41
HPLC result, RRT 1.65 ([2]; 9 months): <0.05
HPLC result, RRT 0.86 ([2]; 12 months): 0.08
HPLC result, RRT 0.94 ([2]; 12 months): 0.06
HPLC result, RRT 1 ([2]; 12 months): 99.4
HPLC result, RRT 1.05 ([2]; 12 months): <0.05
HPLC result, RRT 1.09 ([2]; 12 months): <0.05
HPLC result, RRT 1.15 ([2]; 12 months): 0.07
HPLC result, RRT 1.27 ([2]; 12 months): 0.09
HPLC result, RRT 1.29 ([2]; 12 months): 0.14
HPLC result, RRT 1.65 ([2]; 12 months): 0.18
HPLC result, RRT 0.86 ([2]; T0): 0.06
HPLC result, RRT 0.94 ([2]; T0): 0.07
HPLC result, RRT 1 ([2]; T0): 99.6
HPLC result, RRT 1.05 ([2]; T0): <0.05
HPLC result, RRT 1.09 ([2]; T0): 0.06
HPLC result, RRT 1.15 ([2]; T0): <0.05
HPLC result, RRT 1.27 ([2]; T0): <0.05
HPLC result, RRT 1.29 ([2]; T0): 0.22
HPLC result, RRT 1.65 ([2]; T0): <0.05
change in purity over test period (FIG. 20) ([2]; 12 month test period): little to no change

stability of the salt [1]: unstable
Compound: Nc1cc(Cl)nc(C(=O)[O-])c1Cl.[K+] [potassium salt]
